pIC50: −log10 of the molar value.
What was measured:
[1] = biological target: T1, Cholecystokinin receptor type A (Rattus norvegicus, UniProt P30551); assay: Inhibition of [125I]Cholecystokinin-8 binding to Cholecystokinin type A receptor of rat pancreatic membranes; type: cell membranes, Membrane
T1 sequence (P30551 whole entry): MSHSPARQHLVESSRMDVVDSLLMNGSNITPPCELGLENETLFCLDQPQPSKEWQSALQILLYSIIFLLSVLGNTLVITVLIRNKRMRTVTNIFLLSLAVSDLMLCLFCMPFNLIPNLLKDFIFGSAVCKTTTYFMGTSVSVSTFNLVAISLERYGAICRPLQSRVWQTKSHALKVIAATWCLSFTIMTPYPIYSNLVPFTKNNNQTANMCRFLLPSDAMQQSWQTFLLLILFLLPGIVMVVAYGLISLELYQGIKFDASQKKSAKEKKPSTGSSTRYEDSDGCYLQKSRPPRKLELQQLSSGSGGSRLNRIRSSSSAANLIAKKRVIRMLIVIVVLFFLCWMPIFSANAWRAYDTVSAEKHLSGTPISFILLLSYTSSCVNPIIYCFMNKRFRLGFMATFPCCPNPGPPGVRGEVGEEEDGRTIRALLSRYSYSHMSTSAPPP

[2] = Selectivity for cholecystokinin A and B receptors
[3] = biological target: T1, Cholecystokinin receptor type A; assay: Inhibition of [125I]Cholecystokinin-8 (125I-CCK-8) binding to Cholecystokinin type A receptor of rat pancreatic membranes; type: cell membranes, Membrane

Row | SMILES | pIC50 [1] | Selectivity [2] | pIC50 [3]
1 | Cc1cccc2c1N(CC(=O)N1CC3CCC(CC3)C1)C(=O)C(NC(=O)Nc1cccc(-c3nn[nH]n3)c1)N=C2c1ccccc1F (single isomer, unassigned; (+)) [listing 1 of 2 here] | 8.04 |  | 
2 | CSc1cccc(NC(=O)NC2N=C(c3ccccc3F)c3cccc(C)c3N(CC(=O)N3CC4CCC(CC4)C3)C2=O)c1 (configuration not stated) |  | 57 | 7.68
3 | Cc1cccc2c1N(CC(=O)N1CC3CCC(CC3)C1)C(=O)C(NC(=O)Nc1cccc(C(=O)O)c1)N=C2c1ccccc1F (configuration not stated) |  | 170 | 6.80
4 | CC(=O)c1cccc(NC(=O)NC2N=C(c3ccccc3F)c3cccc(C)c3N(CC(=O)N3CC4CCC(CC4)C3)C2=O)c1 (configuration not stated) |  | 15 | 7.89
5 | Cc1cccc2c1N(CC(=O)N1CC3CCC(CC3)C1)C(=O)C(NC(=O)Nc1cccc(Br)c1)N=C2c1ccccc1F (configuration not stated) |  | 2.8 | 8.29
6 | COc1cccc(NC(=O)NC2N=C(c3ccccc3F)c3cccc(C)c3N(CC(=O)N3CC4CCC(CC4)C3)C2=O)c1 (configuration not stated) |  | 7.3 | 8.14
7 | Cc1cccc2c1N(CC(=O)N1CC3CCC(CC3)C1)C(=O)C(NC(=O)Nc1cccc(-c3nn[nH]n3)c1)N=C2c1ccccc1F (stereo in doubt; (-)-11) [listing 1 of 2 here] | 6.17 |  | 
8 | Cc1cccc2c1N(CC(=O)N1CC3CCC(CC3)C1)C(=O)C(NC(=O)Nc1cccc(-c3nn[nH]n3)c1)N=C2c1ccccc1F (stereo in doubt; 11) [listing 1 of 2 here] |  |  | 7.85
9 | Cc1cccc2c1N(CC(=O)N1CC3CCC(CC3)C1)C(=O)C(NC(=O)Nc1cccc(-c3nn[nH]n3)c1)N=C2c1ccccc1F (stereo in doubt; (-)-11) [listing 2 of 2 here] |  | 110 | 
10 | Cc1cccc2c1N(CC(=O)N1CC3CCC(CC3)C1)C(=O)C(NC(=O)Nc1cccc(-c3nn[nH]n3)c1)N=C2c1ccccc1F (single isomer, unassigned; (+)) [listing 2 of 2 here] |  | 24 | 
11 | Cc1cccc2c1N(CC(=O)N1CC3CCC(CC3)C1)C(=O)C(NC(=O)Nc1cccc(-c3nn[nH]n3)c1)N=C2c1ccccc1F (stereo in doubt; 11) [listing 2 of 2 here] |  | 21 | 
12 | Cc1cccc(NC(=O)NC2N=C(c3ccccc3F)c3ccccc3N(CC(=O)N3CC4CCC(CC4)C3)C2=O)c1 (configuration not stated) |  | 710 | 7.21
13 | Cc1cccc2c1N(CC(=O)N1CC3CCC(CC3)C1)C(=O)C(NC(=O)Nc1cccc(Cl)c1)N=C2c1ccccc1F (configuration not stated) |  | 3.7 | 8.13
14 | Cc1cccc(NC(=O)NC2N=C(c3ccccc3F)c3cccc(C)c3N(CC(=O)N3CC4CCC(CC4)C3)C2=O)c1 (configuration not stated) |  | 36 | 7.77

From ChEMBL document CHEMBL1130373, “Dual CCK-A and -B receptor antagonists (I) C9-methyl-1,4-benzodiazepines” (Bioorg Med Chem Lett, 1997)
